Test results published in patent publication US9695155B2, “Herbicidal substituted pyrimidinyloxy benzene compounds” (E. I. DU PONT DE NEMOURS AND COMPANY, priority 2013, dated 2017).

Tests used:
fall panicum = assay: Test E postemergence; type: in vivo, Panicum dichotomiflorum
Description: (§1) Seeds of plant species selected from corn (Zea mays), soybean (Glycine max), velvetleaf (Abutilon theophrasti), lambsquarters (Chenopodium album), wild poinsettia (Euphorbia heterophylla), palmer pigweed (Amaranthus palmeri), waterhemp (common waterhemp, Amaranthus rudis), surinam grass (Brachiaria decumbens), large (Lg) crabgrass (Digitaria sanguinalis), Brazilian crabgrass (Digitaria horizontalis), fall panicum (Panicum dichotomiflorum), giant foxtail (Setaria faberii), green foxtail (Setaria viridis), goosegrass (Eleusine indica), johnsongrass (Sorghum halepense), ragweed (common ragweed, Ambrosia elatior), barnyardgrass (Echinochloa crus-galli), sandbur (southern sandbur, Cenchrus echinatus), arrowleaf sida (Sida rhombifolia), Italian ryegrass (Lolium multiflorum), dayflower (Virginia (VA) dayflower, Commelina virginica), field bindweed (Convolvulus arvensis), morningglory (Ipomoea coccinea), nightshade (eastern black nightshade, Solanum ptycanthum), kochia (Kochia scoparia), yellow nutsedge (Cyperus esculentus), cocklebur (common cocklebur, Xanthium strumarium), smartweed (ladysthumb smartweed, and hairy beggarticks (Bidens pilosa), were planted into a silt loam soil and treated preemergence with test chemicals formulated in a non-phytotoxic solvent mixture which included a surfactant.
(§2) At the same time, plants from these crop and weed species and also horseweed (Canada horseweed, Conyza canadensis), waterhemp_RES1, (ALS & Triazine resistant common waterhemp, Amaranthus rudis), and waterhemp_RES2, (ALS & HPPD resistant common waterhemp, Amaranthus rudis) were planted in pots containing Redi-Earth® planting medium (Scotts Company, 14111 Scottslawn Road, Marysville, Ohio 43041) comprising spaghnum peat moss, vermiculite, wetting agent and starter nutrients were treated with postemergence applications of test chemicals formulated in the same manner. Plants ranged in height from 2 to 18 cm for postemergence treatments (1- to 4-leaf stage). Treated plants and controls were maintained in a greenhouse for 14 to 21 days, after which time all species were compared to controls and visually evaluated. Plant response ratings, summarized in Table E, are based on a scale of 0 to 100 where 0 is no effect and 100 is complete control. A dash (-) response means no test result.

field bindweed = assay: Test E postemergence; type: in vivo, Convolvulus arvensis
Description: as §1, §2

dayflower = assay: Test E postemergence; type: in vivo, Commelina virginica
Description: as §1, §2

pigweed = assay: Test D preemergence; type: in vivo, Amaranthus retroflexus
Outline: (§3)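 Greenhouse herbicide screen. Sowing into silt loam for preemergence application; foliar application to 2–18 cm seedlings in potting mix for postemergence. 0–100 visual control rating after 7–21 d.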

chickweed = assay: Test D preemergence; type: in vivo, Stellaria media
Outline: as §3

wild radish [1] = assay: Test D preemergence; type: in vivo, Raphanus raphanistrum
Outline: as §3

galium = assay: Test D preemergence; type: in vivo, Galium aparine
Outline: as §3

wild oat = assay: Test D preemergence; type: in vivo, Avena fatua
Outline: as §3

windgrass = assay: Test D postemergence; type: in vivo, Apera spica-venti
Outline: as §3

deadnettle = assay: Test D postemergence; type: in vivo, Lamium amplexicaule
Outline: as §3

kochia = assay: Test D preemergence; type: in vivo, Kochia scoparia
Outline: as §3

Italian ryegrass = assay: Test D preemergence; type: in vivo, Lolium multiflorum
Outline: as §3

wild radish [2] = assay: Test D postemergence; type: in vivo, Raphanus raphanistrum
Outline: as §3

speedwell = assay: Test D postemergence; type: in vivo, Veronica persica
Outline: as §3

[3] = Postemergence, 31 g ai/ha, scale 0 to 100
[4] = Postemergence, 62 g ai/ha, scale 0 to 100
[5] = Postemergence, 125 g ai/ha, scale 0 to 100
[6] = Postemergence, 250 g ai/ha, scale 0 to 100
[7] = postemergence, 16 g ai/ha, scale 0 to 100, 0 no effect, 100 complete control
[8] = postemergence, 8 g ai/ha, scale 0 to 100, 0 no effect, 100 complete control
[9] = 31 g ai/ha, scale 0 (no effect) to 100 (complete control)
[10] = 62 g ai/ha, scale 0 to 100 (0 no effect, 100 complete control)
[11] = 125 g ai/ha, scale 0 to 100 (0 no effect, 100 complete control)
[12] = 250 g ai/ha, scale 0 to 100 (0 no effect, 100 complete control)

## Fc1cnc(Oc2ccccc2-n2cc(Br)cn2)nc1 [Compound 10, 2-[2-(4-bromo-1H-pyrazol-1-yl)phenoxy]-5-fluoropyrimidine]
Fall panicum; Panicum dichotomiflorum, post-emergence, Postemergence, 31 g ai/ha, scale 0 to 100, read-out: Plant response rating, Panicum, Fall
  pest or weed control at 31 g/ha: 0%
Fall panicum; Panicum dichotomiflorum, post-emergence, Postemergence, 62 g ai/ha, scale 0 to 100, read-out: Plant response rating, Panicum, Fall
  pest or weed control at 62 g/ha: 0%
Fall panicum; Panicum dichotomiflorum, post-emergence, Postemergence, 125 g ai/ha, scale 0 to 100, read-out: Plant response rating, Panicum, Fall
  pest or weed control at 125 g/ha: 0%
Fall panicum; Panicum dichotomiflorum, post-emergence, Postemergence, 250 g ai/ha, scale 0 to 100, read-out: Plant response rating, Panicum, Fall
  pest or weed control at 250 g/ha: 0%
Fall panicum; Panicum dichotomiflorum, post-emergence, postemergence, 16 g ai/ha, scale 0 to 100, 0 no effect, 100 complete control, read-out: Plant response rating, Panicum, Fall
  pest or weed control at 16 g/ha: 0%
Field bindweed; Convolvulus arvensis, post-emergence, Postemergence, 31 g ai/ha, scale 0 to 100, read-out: Plant response rating, Field Bindweed
  pest or weed control at 31 g/ha: 30%
Field bindweed; Convolvulus arvensis, post-emergence, Postemergence, 62 g ai/ha, scale 0 to 100, read-out: Plant response rating, Field Bindweed
  pest or weed control at 62 g/ha: 30%
Field bindweed; Convolvulus arvensis, post-emergence, Postemergence, 125 g ai/ha, scale 0 to 100, read-out: Plant response rating, Field Bindweed
  pest or weed control at 125 g/ha: 40%
Field bindweed; Convolvulus arvensis, post-emergence, Postemergence, 250 g ai/ha, scale 0 to 100, read-out: Plant response rating, Field Bindweed
  pest or weed control at 250 g/ha: 50%
Field bindweed; Convolvulus arvensis, post-emergence, postemergence, 16 g ai/ha, scale 0 to 100, 0 no effect, 100 complete control, read-out: Plant response rating, Field Bindweed
  pest or weed control at 16 g/ha: 15%
dayflower; Commelina virginica, post-emergence, Postemergence, 31 g ai/ha, scale 0 to 100, read-out: Plant response rating, Dayflower, VA
  pest or weed control at 31 g/ha: 10%
dayflower; Commelina virginica, post-emergence, Postemergence, 62 g ai/ha, scale 0 to 100, read-out: Plant response rating, Dayflower, VA
  pest or weed control at 62 g/ha: 40%
dayflower; Commelina virginica, post-emergence, Postemergence, 125 g ai/ha, scale 0 to 100, read-out: Plant response rating, Dayflower, VA
  pest or weed control at 125 g/ha: 50%
dayflower; Commelina virginica, post-emergence, Postemergence, 250 g ai/ha, scale 0 to 100, read-out: Plant response rating, Dayflower, VA
  pest or weed control at 250 g/ha: 75%
dayflower; Commelina virginica, post-emergence, postemergence, 16 g ai/ha, scale 0 to 100, 0 no effect, 100 complete control, read-out: Plant response rating, Dayflower, VA
  pest or weed control at 16 g/ha: 5%

## FC(F)(F)c1cnn(-c2ccccc2Oc2ncc(Cl)cn2)c1 [Compound 16]
Fall panicum; [3]
  Plant response rating, Panicum, Fall: 0
Fall panicum; [4]
  Plant response rating, Panicum, Fall: 10
Fall panicum; [5]
  Plant response rating, Panicum, Fall: 20
Fall panicum; [6]
  Plant response rating, Panicum, Fall: 25
Fall panicum; [7]
  Plant response rating, Panicum, Fall: 0
Field bindweed; [3]
  Plant response rating, Field Bindweed: 30
Field bindweed; [4]
  Plant response rating, Field Bindweed: 40
Field bindweed; [5]
  Plant response rating, Field Bindweed: 50
Field bindweed; [6]
  Plant response rating, Field Bindweed: 60
Field bindweed; [7]
  Plant response rating, Field Bindweed: 10
dayflower; [3]
  Plant response rating, Dayflower, VA: 10
dayflower; [4]
  Plant response rating, Dayflower, VA: 15
dayflower; [5]
  Plant response rating, Dayflower, VA: 30
dayflower; [6]
  Plant response rating, Dayflower, VA: 40
dayflower; [7]
  Plant response rating, Dayflower, VA: 0

## Clc1cnc(Oc2cccc(Br)c2-n2cc(Br)cn2)nc1 [Compound 65]
Fall panicum; [3]
  Plant response rating, Panicum, Fall: 5
Fall panicum; [4]
  Plant response rating, Panicum, Fall: 0
Fall panicum; [5]
  Plant response rating, Panicum, Fall: 15
Fall panicum; [8]
  Plant response rating, Panicum, Fall: 0
Fall panicum; [7]
  Plant response rating, Panicum, Fall: 0
Field bindweed; [3]
  Plant response rating, Field Bindweed: 20
Field bindweed; [4]
  Plant response rating, Field Bindweed: 40
Field bindweed; [5]
  Plant response rating, Field Bindweed: 40
Field bindweed; [8]
  Plant response rating, Field Bindweed: 0
Field bindweed; [7]
  Plant response rating, Field Bindweed: 10
dayflower; [3]
  Plant response rating, Dayflower, VA: 10
dayflower; [4]
  Plant response rating, Dayflower, VA: 10
dayflower; [5]
  Plant response rating, Dayflower, VA: 20
dayflower; [8]
  Plant response rating, Dayflower, VA: 5
dayflower; [7]
  Plant response rating, Dayflower, VA: 5

## N#Cc1cccc(Oc2ncc(Cl)cn2)c1-n1cc(-n2ccc(C(F)(F)F)n2)cn1 [Compound 284]
pigweed; [9]
  Plant response rating, Pigweed: 75
pigweed; 125 g ai/ha, scale 0-100
  Plant response rating, Pigweed: 100
pigweed; 250 g ai/ha, scale 0-100
  Plant response rating, Pigweed: 100
chickweed; [9]
  Plant response rating, Chickweed: 10
chickweed; 62 g ai/ha, scale 0-100
  Plant response rating, Chickweed: 15
chickweed; 125 g ai/ha, scale 0-100
  Plant response rating, Chickweed: 20
chickweed; 250 g ai/ha, scale 0-100
  Plant response rating, Chickweed: 30
Wild radish [1]; [9]
  Plant response rating, Radish, Wild: 0
Wild radish [1]; 125 g ai/ha, scale 0-100
  Plant response rating, Radish, Wild: 0
Wild radish [1]; 250 g ai/ha, scale 0-100
  Plant response rating, Radish, Wild: 35
galium; [9]
  Plant response rating, Galium: 20
galium; 62 g ai/ha, scale 0-100
  Plant response rating, Galium: 20
galium; 125 g ai/ha, scale 0-100
  Plant response rating, Galium: 20
galium; 250 g ai/ha, scale 0-100
  Plant response rating, Galium: 25
Wild oat; [9]
  Plant response rating, Oat, Wild: 0
Wild oat; 62 g ai/ha, scale 0-100
  Plant response rating, Oat, Wild: 0
Wild oat; 125 g ai/ha, scale 0-100
  Plant response rating, Oat, Wild: 20
Wild oat; 250 g ai/ha, scale 0-100
  Plant response rating, Oat, Wild: 50
windgrass; 31 g ai/ha, scale 0-100
  Plant response rating, Windgrass: 20
windgrass; [10]
  Plant response rating, Windgrass: 20
windgrass; [11]
  Plant response rating, Windgrass: 30
windgrass; [12]
  Plant response rating, Windgrass: 30
deadnettle; 31 g ai/ha, scale 0-100
  Plant response rating, Deadnettle: 70
deadnettle; [10]
  Plant response rating, Deadnettle: 100
deadnettle; [11]
  Plant response rating, Deadnettle: 100
deadnettle; [12]
  Plant response rating, Deadnettle: 100
kochia; [9]
  Plant response rating, Kochia: 0
kochia; 62 g ai/ha, scale 0-100
  Plant response rating, Kochia: 20
kochia; 125 g ai/ha, scale 0-100
  Plant response rating, Kochia: 100
kochia; 250 g ai/ha, scale 0-100
  Plant response rating, Kochia: 95
Italian ryegrass; [9]
  Plant response rating, Ryegrass, Italian: 0
Italian ryegrass; 125 g ai/ha, scale 0-100
  Plant response rating, Ryegrass, Italian: 0
Italian ryegrass; 250 g ai/ha, scale 0-100
  Plant response rating, Ryegrass, Italian: 30
Wild radish [2]; 31 g ai/ha, scale 0-100
  Plant response rating, Radish, Wild: 75
Wild radish [2]; [10]
  Plant response rating, Radish, Wild: 100
Wild radish [2]; [11]
  Plant response rating, Radish, Wild: 100
Wild radish [2]; [12]
  Plant response rating, Radish, Wild: 100
speedwell; 31 g ai/ha, scale 0-100
  Plant response rating, Speedwell: 70
speedwell; [10]
  Plant response rating, Speedwell: 75
speedwell; [11]
  Plant response rating, Speedwell: 100
speedwell; [12]
  Plant response rating, Speedwell: 100
